{"source": "patent US20150322083A1", "about": "“(THIENO[2,3-b][1,5]BENZOXAZEPIN-4-YL)PIPERAZIN-1-YL COMPOUNDS AS SELECTIVE 5-HT2A INVERSE AGONISTS” (Eli Lilly and Company, priority 2014, published 2015)", "key": {"5-HT2B": {"molecular_target": "5-HT2B (Homo sapiens, UniProt P41595)", "sequence (P41595 whole entry, species assumed)": "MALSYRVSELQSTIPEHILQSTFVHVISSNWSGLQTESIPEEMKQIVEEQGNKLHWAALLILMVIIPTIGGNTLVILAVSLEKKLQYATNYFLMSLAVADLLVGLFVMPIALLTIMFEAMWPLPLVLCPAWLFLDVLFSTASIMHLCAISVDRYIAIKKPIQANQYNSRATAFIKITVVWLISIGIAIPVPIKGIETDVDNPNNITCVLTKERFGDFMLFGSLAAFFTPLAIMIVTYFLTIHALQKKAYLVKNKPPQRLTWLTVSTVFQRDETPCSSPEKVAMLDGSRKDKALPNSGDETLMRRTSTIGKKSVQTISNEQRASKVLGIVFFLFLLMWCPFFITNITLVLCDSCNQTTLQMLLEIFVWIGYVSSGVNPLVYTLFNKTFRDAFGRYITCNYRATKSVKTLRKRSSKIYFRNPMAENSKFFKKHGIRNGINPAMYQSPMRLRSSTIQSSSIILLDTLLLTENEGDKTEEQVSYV", "experiment": "5-HT2B binding (selectivity data)", "procedure": "(§1) Curves are evaluated using a 4-parameter logistic nonlinear equation to obtain the concentration of competitor causing 50% inhibition of radioligand binding (IC50). Equilibrium dissociation constants (Ki) are calculated according to the equation Ki=IC50/(1+L/Kd), where L equals the concentration of radioligand used in the experiment and Kd equals the equilibrium dissociation constant of the radioligand for the receptor, determined from standard saturation analysis or homologous competition experiments. Reported values for Ki, where n values are indicated, are shown as geometric mean±the standard error of the mean (SEM), with the number of replicate determinations indicated by n. Geometric means are calculated by the equation GeoMean=10̂(Average(log Ki 1+log Ki 2+ . . . log Ki n)/[…]).\n(§2) Further, the compounds of the invention may be tested in binding assays and functional activity assays by well known methods for other physiologically important receptors such as, but not limited to, the hERG channel, other serotonin receptors (specifically 5-HT1B receptors, lack of agonist activity at 5-HT2B receptors, 5-HT2C, 5-HT5, 5-HT6, and 5-HT7 receptors), dopaminergic receptors (specifically D1, D2, and D3), H1 receptors, GABAA receptors, adrenergic receptors and monoamine transporters."}, "[1]": {"molecular_target": "T1, recombinant 5-HT2C receptors (human) (Homo sapiens, UniProt P28335)", "T1 construct": "expressed in transfected cells", "T1 sequence (P28335 33-458)": "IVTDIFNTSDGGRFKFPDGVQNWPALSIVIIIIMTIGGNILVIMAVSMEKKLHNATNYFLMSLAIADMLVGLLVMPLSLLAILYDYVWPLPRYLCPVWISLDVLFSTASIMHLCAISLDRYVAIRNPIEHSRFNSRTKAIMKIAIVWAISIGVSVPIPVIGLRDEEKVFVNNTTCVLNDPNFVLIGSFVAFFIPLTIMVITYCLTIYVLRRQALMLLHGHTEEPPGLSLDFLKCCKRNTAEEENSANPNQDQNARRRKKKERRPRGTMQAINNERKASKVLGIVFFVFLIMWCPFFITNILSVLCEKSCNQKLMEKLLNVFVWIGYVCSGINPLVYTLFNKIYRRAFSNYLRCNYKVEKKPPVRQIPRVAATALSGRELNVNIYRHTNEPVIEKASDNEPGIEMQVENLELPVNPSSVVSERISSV", "experiment": "5-HT2C competition binding assay ([125I]-(±)DOI, SPA)", "procedure": "[^125I]-(±)DOI binding experiments are carried out in SPA 96-well format. Membranes used in this assay are prepared from AV-12 cells stably expressing recombinant 5-HT2C receptors (human). The incubation is initiated by the addition of a mixture of WGA PVT SPA beads (0.5 mg/well, Perkin Elmer (MA, USA), RPNQ0001) and 2.5 μg membranes to assay buffer (50 mM Tris-HCl, 10 mM MgCl2, 0.5 mM EDTA, 10 μM pargyline, 0.1% ascorbic acid, pH7.4) containing 0.2 nM [[^125I]-(±)DOI and varying concentrations of the test compound (10 point concentration response curves). Non-specific binding is determined in the presence of 20 μM 1-(1-naphthyl)piperazine. Samples are incubated for 4 hr. at room temperature (22° C.) and then read in a microplate scintillation counter.\nCurves are evaluated using a 4-parameter logistic nonlinear equation to obtain the concentration of competitor causing 50% inhibition of radioligand binding (IC50). Equilibrium dissociation constants (Ki) are calculated according to the equation Ki=IC50/(1+L/Kd), where L equals the concentration of radioligand used in the experiment and Kd equals the equilibrium dissociation constant of the radioligand for the receptor, determined from standard saturation analysis or homologous competition experiments. […]"}, "hERG channel": {"molecular_target": "hERG channel (Homo sapiens, UniProt Q12809)", "sequence (Q12809 whole entry)": "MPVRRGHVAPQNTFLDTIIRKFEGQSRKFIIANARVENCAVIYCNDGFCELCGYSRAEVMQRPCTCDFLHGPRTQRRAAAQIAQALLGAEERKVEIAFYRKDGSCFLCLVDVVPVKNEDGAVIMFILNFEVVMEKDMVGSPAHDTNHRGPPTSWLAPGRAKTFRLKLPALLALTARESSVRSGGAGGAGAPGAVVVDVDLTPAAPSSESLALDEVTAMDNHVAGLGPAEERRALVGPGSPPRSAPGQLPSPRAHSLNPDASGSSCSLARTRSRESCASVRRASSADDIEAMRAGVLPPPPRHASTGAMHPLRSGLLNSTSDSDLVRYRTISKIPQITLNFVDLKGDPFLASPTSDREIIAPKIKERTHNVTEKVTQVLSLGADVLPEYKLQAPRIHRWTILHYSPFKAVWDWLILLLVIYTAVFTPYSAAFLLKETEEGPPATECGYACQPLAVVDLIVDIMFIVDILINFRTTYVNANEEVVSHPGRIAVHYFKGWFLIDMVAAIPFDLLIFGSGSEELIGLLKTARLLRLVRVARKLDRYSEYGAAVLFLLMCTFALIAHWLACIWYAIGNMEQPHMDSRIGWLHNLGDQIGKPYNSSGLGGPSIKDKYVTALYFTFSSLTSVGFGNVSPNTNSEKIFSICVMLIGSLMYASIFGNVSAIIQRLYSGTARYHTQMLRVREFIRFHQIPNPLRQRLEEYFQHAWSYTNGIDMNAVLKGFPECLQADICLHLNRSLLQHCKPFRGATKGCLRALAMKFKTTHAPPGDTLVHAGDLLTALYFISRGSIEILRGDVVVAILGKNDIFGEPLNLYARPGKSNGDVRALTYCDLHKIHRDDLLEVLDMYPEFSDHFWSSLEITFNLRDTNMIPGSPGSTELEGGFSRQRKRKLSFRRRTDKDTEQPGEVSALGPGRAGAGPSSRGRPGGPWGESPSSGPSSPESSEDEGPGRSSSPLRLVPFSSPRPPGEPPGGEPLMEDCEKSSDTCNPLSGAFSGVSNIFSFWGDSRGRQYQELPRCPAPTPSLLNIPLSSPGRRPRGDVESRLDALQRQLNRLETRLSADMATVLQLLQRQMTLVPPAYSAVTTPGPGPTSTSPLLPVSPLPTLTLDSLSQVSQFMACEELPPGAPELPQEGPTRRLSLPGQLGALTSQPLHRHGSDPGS", "experiment": "hERG channel assay (selectivity data)", "excerpt": "as §2"}, "Dopamine D1": {"molecular_target": "Dopamine D1 (Homo sapiens, UniProt P21728)", "sequence (P21728 whole entry)": "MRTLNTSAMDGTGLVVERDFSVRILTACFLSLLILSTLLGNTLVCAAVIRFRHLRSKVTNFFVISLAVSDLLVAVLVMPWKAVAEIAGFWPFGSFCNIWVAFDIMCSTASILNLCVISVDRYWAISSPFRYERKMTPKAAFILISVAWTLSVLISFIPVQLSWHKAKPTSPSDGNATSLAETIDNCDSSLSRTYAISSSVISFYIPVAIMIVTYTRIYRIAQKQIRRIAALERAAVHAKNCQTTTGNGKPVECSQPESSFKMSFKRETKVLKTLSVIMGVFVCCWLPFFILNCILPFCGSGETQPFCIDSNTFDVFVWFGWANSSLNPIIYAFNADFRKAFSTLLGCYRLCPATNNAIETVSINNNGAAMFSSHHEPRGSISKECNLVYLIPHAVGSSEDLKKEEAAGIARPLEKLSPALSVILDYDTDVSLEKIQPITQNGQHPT", "experiment": "Dopamine D1 binding", "procedure": "as §1, §2"}, "Dopamine D2": {"molecular_target": "Dopamine D2 (Homo sapiens, UniProt P14416)", "experiment": "Dopamine D2 binding", "procedure": "as §1, §2"}, "Dopamine D3": {"molecular_target": "Dopamine D3 (Homo sapiens, UniProt P35462)", "sequence (P35462 whole entry)": "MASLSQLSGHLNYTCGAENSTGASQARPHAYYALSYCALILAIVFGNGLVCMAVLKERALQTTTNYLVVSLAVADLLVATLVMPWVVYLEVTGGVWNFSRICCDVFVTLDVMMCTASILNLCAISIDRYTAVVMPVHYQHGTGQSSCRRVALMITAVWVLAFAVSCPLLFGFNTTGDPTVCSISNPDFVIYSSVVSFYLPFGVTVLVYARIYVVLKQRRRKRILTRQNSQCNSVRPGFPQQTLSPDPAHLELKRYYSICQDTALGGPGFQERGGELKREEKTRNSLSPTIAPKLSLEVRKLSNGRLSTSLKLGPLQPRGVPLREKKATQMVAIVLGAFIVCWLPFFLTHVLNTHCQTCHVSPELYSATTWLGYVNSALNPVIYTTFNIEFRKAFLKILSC", "experiment": "Dopamine D3 binding", "procedure": "as §1, §2"}, "5-HT1B receptors": {"molecular_target": "5-HT1B receptors (Homo sapiens, UniProt P28222)", "sequence (P28222 whole entry)": "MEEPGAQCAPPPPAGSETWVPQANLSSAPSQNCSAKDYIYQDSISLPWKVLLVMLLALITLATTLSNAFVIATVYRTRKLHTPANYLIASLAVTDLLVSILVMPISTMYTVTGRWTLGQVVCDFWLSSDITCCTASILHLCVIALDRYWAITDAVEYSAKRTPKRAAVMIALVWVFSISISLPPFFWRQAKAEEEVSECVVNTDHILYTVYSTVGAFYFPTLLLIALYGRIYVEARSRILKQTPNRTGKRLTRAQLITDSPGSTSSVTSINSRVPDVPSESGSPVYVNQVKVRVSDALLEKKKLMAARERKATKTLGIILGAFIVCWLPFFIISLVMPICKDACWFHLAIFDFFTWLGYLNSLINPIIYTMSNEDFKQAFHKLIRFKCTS", "experiment": "5-HT1B binding", "procedure": "as §1, §2"}, "5-HT7 receptors": {"molecular_target": "5-HT7 receptors (Homo sapiens, UniProt P34969)", "sequence (P34969 whole entry)": "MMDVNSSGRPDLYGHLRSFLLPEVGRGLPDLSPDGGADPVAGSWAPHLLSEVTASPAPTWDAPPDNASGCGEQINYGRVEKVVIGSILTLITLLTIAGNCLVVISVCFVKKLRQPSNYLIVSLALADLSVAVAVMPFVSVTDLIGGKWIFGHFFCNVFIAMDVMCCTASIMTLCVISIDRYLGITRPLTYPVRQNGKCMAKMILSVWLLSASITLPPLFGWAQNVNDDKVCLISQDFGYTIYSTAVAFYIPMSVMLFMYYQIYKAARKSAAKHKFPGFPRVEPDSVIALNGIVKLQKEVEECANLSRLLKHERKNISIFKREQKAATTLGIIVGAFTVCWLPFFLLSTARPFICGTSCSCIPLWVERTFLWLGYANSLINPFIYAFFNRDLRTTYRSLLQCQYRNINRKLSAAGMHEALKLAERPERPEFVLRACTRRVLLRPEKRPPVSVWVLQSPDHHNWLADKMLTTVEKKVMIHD", "experiment": "5-HT7 binding", "procedure": "as §1, §2"}, "Adrenergic alpha2C": {"molecular_target": "Adrenergic alpha2C (Homo sapiens, UniProt P18825)", "sequence (P18825 whole entry)": "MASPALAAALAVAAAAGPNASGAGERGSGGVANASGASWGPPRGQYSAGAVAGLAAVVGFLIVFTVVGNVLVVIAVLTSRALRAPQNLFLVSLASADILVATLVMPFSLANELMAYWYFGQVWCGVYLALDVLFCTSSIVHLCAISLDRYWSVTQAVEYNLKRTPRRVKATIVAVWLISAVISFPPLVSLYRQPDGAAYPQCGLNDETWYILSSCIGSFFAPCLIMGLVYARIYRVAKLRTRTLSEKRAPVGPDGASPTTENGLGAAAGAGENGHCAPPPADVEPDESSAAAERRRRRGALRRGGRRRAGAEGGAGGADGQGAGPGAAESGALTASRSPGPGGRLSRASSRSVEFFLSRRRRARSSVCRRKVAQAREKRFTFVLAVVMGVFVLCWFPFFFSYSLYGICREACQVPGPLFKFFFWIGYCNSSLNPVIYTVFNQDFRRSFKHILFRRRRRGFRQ", "experiment": "Adrenergic alpha2C binding", "procedure": "as §1, §2"}, "Serotonin Transporter": {"molecular_target": "Serotonin Transporter (Homo sapiens, UniProt P31645)", "sequence (P31645 whole entry)": "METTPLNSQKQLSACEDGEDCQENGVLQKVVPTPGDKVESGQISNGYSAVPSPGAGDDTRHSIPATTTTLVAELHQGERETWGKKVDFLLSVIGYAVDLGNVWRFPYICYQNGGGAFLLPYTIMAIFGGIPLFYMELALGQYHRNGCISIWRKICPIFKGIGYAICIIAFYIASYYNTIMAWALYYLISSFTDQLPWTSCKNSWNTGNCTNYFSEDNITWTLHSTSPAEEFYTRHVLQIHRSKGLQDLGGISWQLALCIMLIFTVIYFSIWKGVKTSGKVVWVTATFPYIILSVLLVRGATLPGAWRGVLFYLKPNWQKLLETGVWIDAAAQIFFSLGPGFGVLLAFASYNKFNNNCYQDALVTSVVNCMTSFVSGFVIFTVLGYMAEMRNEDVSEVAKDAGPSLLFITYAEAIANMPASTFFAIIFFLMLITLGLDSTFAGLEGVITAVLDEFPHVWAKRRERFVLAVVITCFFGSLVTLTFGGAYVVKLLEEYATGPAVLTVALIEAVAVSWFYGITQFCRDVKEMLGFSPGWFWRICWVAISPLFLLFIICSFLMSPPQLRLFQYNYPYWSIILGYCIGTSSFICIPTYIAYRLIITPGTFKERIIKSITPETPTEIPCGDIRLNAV", "experiment": "Serotonin transporter binding", "procedure": "as §1, §2"}, "[2]": {"test_system": "DOI induced headshake response", "experiment": "Inhibition of DOI induced headshake activity", "type": "in vivo, male C57BL/6J mice", "conditions": "mice, PO, 60 min. pre-treatment, DOI 3 mg/kg subcutaneously", "procedure": "(see for example Bartoszyk G D, van Amsterdam C, Böttcher H, Seyfried C A. EMD 281014, a new selective serotonin 5-HT2A receptor antagonist. Eur J Pharmacol. 2003 473: 229-230.) This assay has also be used as an indicator of anti-psychotic therapeutic potential. Briefly, male C57BL/6J mice (20-25 g, Charles River) are housed in standard housing conditions (32 mice in a large IVC cage, 07.00 to 19.00 light phase, constant temperature (19-23° C.) and humidity (50%+/−10), ad lib food and water). Mice received either vehicle (0.25% Methyl cellulose), DOI (3 mg/kg in saline) or test compound at doses up to 10 mg/kg PO plus DOI (3 mg/kg in saline). Test compounds are individually evaluated at 4 doses with n=4 for each dose, together with vehicle and DOI+vehicle (n=8). After a test compound pre-treatment time of 60 min. the mice receive either vehicle (saline) or 3 mg/kg DOI dosed subcutaneously, and are then placed into clear perspex observation chambers. […] The data is analyzed using an ANOVA and post-hoc Dunnet's Test. The compounds of Example 1 and Example 2 are tested essentially as described and are found to inhibit the DOI induced headshake response with an approximate EC50 of 0.5 mg/kg for both compounds."}}, "note": "pKi: −log10 of the molar value.", "data": [{"molecule": "Cc1ccc2c(c1)Oc1sc(SC(C)C)cc1C(N1CCN(CC(C)(C)C(=O)O)CC1)=N2", "note": "[Example 1, 3-[4-(2-isopropylsulfanyl-8-methyl-thieno[2,3-b][1,5]benzoxazepin-4-yl)piperazin-1-yl]-2,2-dimethyl-propanoic acid]", "values": [{"measurement": "pKi", "setting": "5-HT2B", "value": 6.12}, {"measurement": "pKi", "setting": "[1]", "value": 6.44}, {"measurement": "hERG Channel", "setting": "hERG channel", "value": ">100", "unit": "µM"}, {"measurement": "pKi", "setting": "Dopamine D1", "value": 5.58}, {"measurement": "pKi", "setting": "Dopamine D2", "value": "< 5.12"}, {"measurement": "pKi", "setting": "Dopamine D3", "value": "< 5.26"}, {"measurement": "pKi", "setting": "5-HT1B receptors", "value": "< 5.02"}, {"measurement": "pKi", "setting": "5-HT7 receptors", "value": "< 5.69"}, {"measurement": "pKi", "setting": "Adrenergic alpha2C", "value": "< 5.19"}, {"measurement": "pKi", "setting": "Serotonin Transporter", "value": "< 6.28"}, {"measurement": "approximate EC50, inhibition of DOI induced headshake response", "setting": "[2]", "value": "~0.5", "unit": "mg/kg"}]}]}
